Assay results: the supplement of paper PMC10307832

Experiments:
Experiment in all cases: relative viability (nuclei count vs DMSO), 5 days (fraction); higher = more cells survive
[1] = tested on: ChaGo-K-1
How it was run: (§1)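 Lung cancer cell lines were pin-tool dosed in 1536-well plates on the day after seeding, with either a lone drug or a fixed anchor-drug dose plus five library-drug doses (not always all listed) in √10 steps. Nuclei were counted on 4× images after 5 days. Relative viability is the ratio of treated-well to vehicle-well nuclei counts, with each value a median of duplicate plates.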

[2] = tested on: EKVX
How it was run: as §1

[3] = tested on: EMC-BAC-2
How it was run: as §1

[4] = tested on: EPLC-272H
How it was run: as §1

[5] = tested on: H3255
How it was run: as §1

[6] = tested on: HARA
How it was run: as §1

[7] = tested on: HCC-15
How it was run: as §1

[8] = tested on: HCC-827
How it was run: as §1

[9] = tested on: LC-2-ad
How it was run: as §1

[10] = tested on: LCLC-103H
How it was run: as §1

[11] = tested on: LK-2
How it was run: as §1

[12] = tested on: NCI-H1648
How it was run: as §1

[13] = tested on: NCI-H1792
How it was run: as §1

[14] = tested on: NCI-H1793
How it was run: as §1

[15] = tested on: NCI-H1944
How it was run: as §1

[16] = tested on: NCI-H2170
How it was run: as §1

[17] = tested on: NCI-H23
How it was run: as §1

[18] = tested on: NCI-H2405
How it was run: as §1

[19] = tested on: NCI-H3122
How it was run: as §1

[20] = tested on: NCI-H596
How it was run: as §1

[21] = tested on: RERF-LC-KJ
How it was run: as §1

[22] = tested on: SW 1573
How it was run: as §1

[23] = tested on: SW 900
How it was run: as §1

Q: With Oc1nc(-c2ccc(C(F)(F)F)cc2)nc2c1CSCC2 [XAV939] + CC(=O)Nc1cccc(-n2c(=O)n(C3CC3)c(=O)c3c(Nc4ccc(I)cc4F)n(C)c(=O)c(C)c32)c1 [Trametinib] (partner 0.02 µM) as the compound, how does the relative viability ([1]; first compound 0.08 µM) read?
A: 0.977

Q: What about the relative viability ([1]; first compound 0.253 µM) of the same compound?
A: 0.82

Q: What about the relative viability ([1]; first compound 0.8 µM) of the same compound?
A: 0.907

Q: And the relative viability ([1]; first compound 2.53 µM)?
A: 0.802

Q: What about the relative viability ([2]; first compound 0.08 µM) of the same compound?
A: 0.346

Q: And the relative viability ([2]; first compound 0.253 µM)?
A: 0.317

Q: What about the relative viability ([2]; first compound 0.8 µM) of the same compound?
A: 0.311

Q: What about the relative viability ([2]; first compound 2.53 µM) of the same compound?
A: 0.245

Q: And the relative viability ([3]; first compound 0.08 µM)?
A: 0.972

Q: And the relative viability ([3]; first compound 0.253 µM)?
A: 0.875

Q: What about the relative viability ([3]; first compound 0.8 µM) of the same compound?
A: 0.78

Q: What about the relative viability ([3]; first compound 2.53 µM) of the same compound?
A: 0.671

Q: What about the relative viability ([4]; first compound 0.08 µM) of the same compound?
A: 0.29

Q: What about the relative viability ([4]; first compound 0.253 µM) of the same compound?
A: 0.251

Q: And the relative viability ([4]; first compound 0.8 µM)?
A: 0.274

Q: What about the relative viability ([4]; first compound 2.53 µM) of the same compound?
A: 0.23

Q: What about the relative viability ([5]; first compound 0.08 µM) of the same compound?
A: 0.674

Q: And the relative viability ([5]; first compound 0.253 µM)?
A: 0.528

Q: And the relative viability ([5]; first compound 0.8 µM)?
A: 0.62

Q: And the relative viability ([5]; first compound 2.53 µM)?
A: 0.425

Q: And the relative viability ([6]; first compound 0.08 µM)?
A: 0.925

Q: And the relative viability ([6]; first compound 0.253 µM)?
A: 0.531

Q: What about the relative viability ([6]; first compound 0.8 µM) of the same compound?
A: 0.892

Q: What about the relative viability ([6]; first compound 2.53 µM) of the same compound?
A: 0.506

Q: And the relative viability ([7]; first compound 0.08 µM)?
A: 0.416

Q: And the relative viability ([7]; first compound 0.253 µM)?
A: 0.342

Q: What about the relative viability ([7]; first compound 0.8 µM) of the same compound?
A: 0.376

Q: What about the relative viability ([7]; first compound 2.53 µM) of the same compound?
A: 0.304

Q: And the relative viability ([8]; first compound 0.08 µM)?
A: 0.592

Q: What about the relative viability ([8]; first compound 0.253 µM) of the same compound?
A: 0.504

Q: What about the relative viability ([8]; first compound 0.8 µM) of the same compound?
A: 0.642

Q: And the relative viability ([8]; first compound 2.53 µM)?
A: 0.514

Q: And the relative viability ([9]; first compound 0.08 µM)?
A: 0.932

Q: And the relative viability ([9]; first compound 0.253 µM)?
A: 0.899

Q: What about the relative viability ([9]; first compound 0.8 µM) of the same compound?
A: 0.922

Q: And the relative viability ([9]; first compound 2.53 µM)?
A: 0.79

Q: And the relative viability ([10]; first compound 0.08 µM)?
A: 0.704

Q: What about the relative viability ([10]; first compound 0.253 µM) of the same compound?
A: 0.641

Q: What about the relative viability ([10]; first compound 0.8 µM) of the same compound?
A: 0.672

Q: What about the relative viability ([10]; first compound 2.53 µM) of the same compound?
A: 0.676

Q: And the relative viability ([11]; first compound 0.08 µM)?
A: 0.788

Q: What about the relative viability ([11]; first compound 0.253 µM) of the same compound?
A: 0.792

Q: What about the relative viability ([11]; first compound 0.8 µM) of the same compound?
A: 0.703

Q: What about the relative viability ([11]; first compound 2.53 µM) of the same compound?
A: 0.535

Q: What about the relative viability ([12]; first compound 0.253 µM) of the same compound?
A: 0.438

Q: And the relative viability ([12]; first compound 0.8 µM)?
A: 0.606

Q: And the relative viability ([12]; first compound 2.53 µM)?
A: 0.361

Q: What about the relative viability ([13]; first compound 0.08 µM) of the same compound?
A: 0.492

Q: What about the relative viability ([13]; first compound 0.253 µM) of the same compound?
A: 0.473

Q: And the relative viability ([13]; first compound 0.8 µM)?
A: 0.448

Q: And the relative viability ([13]; first compound 2.53 µM)?
A: 0.391

Q: And the relative viability ([14]; first compound 0.08 µM)?
A: 0.576

Q: And the relative viability ([14]; first compound 0.253 µM)?
A: 0.381

Q: What about the relative viability ([14]; first compound 0.8 µM) of the same compound?
A: 0.381

Q: What about the relative viability ([14]; first compound 2.53 µM) of the same compound?
A: 0.353

Q: What about the relative viability ([15]; first compound 0.08 µM) of the same compound?
A: 0.418

Q: What about the relative viability ([15]; first compound 0.253 µM) of the same compound?
A: 0.388

Q: What about the relative viability ([15]; first compound 0.8 µM) of the same compound?
A: 0.412

Q: And the relative viability ([15]; first compound 2.53 µM)?
A: 0.292

Q: What about the relative viability ([16]; first compound 0.08 µM) of the same compound?
A: 0.882

Q: What about the relative viability ([16]; first compound 0.253 µM) of the same compound?
A: 0.833

Q: What about the relative viability ([16]; first compound 0.8 µM) of the same compound?
A: 0.822

Q: What about the relative viability ([16]; first compound 2.53 µM) of the same compound?
A: 0.72

Q: And the relative viability ([17]; first compound 0.08 µM)?
A: 0.383

Q: What about the relative viability ([17]; first compound 0.8 µM) of the same compound?
A: 0.403

Q: And the relative viability ([17]; first compound 2.53 µM)?
A: 0.349

Q: And the relative viability ([18]; first compound 0.08 µM)?
A: 0.685

Q: And the relative viability ([18]; first compound 0.253 µM)?
A: 0.591

Q: And the relative viability ([18]; first compound 0.8 µM)?
A: 0.607

Q: What about the relative viability ([18]; first compound 2.53 µM) of the same compound?
A: 0.412

Q: What about the relative viability ([19]; first compound 0.08 µM) of the same compound?
A: 0.257

Q: And the relative viability ([19]; first compound 0.253 µM)?
A: 0.211

Q: What about the relative viability ([19]; first compound 0.8 µM) of the same compound?
A: 0.237

Q: And the relative viability ([19]; first compound 2.53 µM)?
A: 0.196

Q: And the relative viability ([20]; first compound 0.08 µM)?
A: 0.974

Q: And the relative viability ([20]; first compound 0.253 µM)?
A: 0.775

Q: And the relative viability ([20]; first compound 0.8 µM)?
A: 0.75

Q: And the relative viability ([20]; first compound 2.53 µM)?
A: 0.657

Q: What about the relative viability ([21]; first compound 0.08 µM) of the same compound?
A: 0.859

Q: What about the relative viability ([21]; first compound 0.253 µM) of the same compound?
A: 0.733

Q: And the relative viability ([21]; first compound 0.8 µM)?
A: 0.768

Q: What about the relative viability ([21]; first compound 2.53 µM) of the same compound?
A: 0.603

Q: And the relative viability ([22]; first compound 0.08 µM)?
A: 0.63

Q: And the relative viability ([22]; first compound 0.253 µM)?
A: 0.545

Q: And the relative viability ([22]; first compound 0.8 µM)?
A: 0.608

Q: What about the relative viability ([22]; first compound 2.53 µM) of the same compound?
A: 0.425

Q: What about the relative viability ([23]; first compound 0.253 µM) of the same compound?
A: 0.579

Q: And the relative viability ([23]; first compound 0.8 µM)?
A: 0.955

Q: And the relative viability ([23]; first compound 2.53 µM)?
A: 0.495
